Measured values taken from PubChem BioAssay AID179 (DTP/NCI, 2004).
Where “and” joins values, the source holds several entries; their conditions need not be identical. Equal values may be shown once. Calls of active or inactive are those of the source.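 The calls were made as follows: active = compounds giving half or more protection of infected cells from virus-caused growth loss, again on retest; inactive = the rest.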

Test system: CEM cells HIV-1 protection, formazan growth assay
Assay: NCI AIDS Antiviral Assay
Conditions: for IC50: measured here: growth of uninfected CEM cells
Procedure, shortened: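 Human CEM cells, uninfected and HIV-1-infected, received five drug concentrations, and growth was read by soluble formazan assay. Compounds giving at least 50% protection were retested; reproducible 100% protection defined confirmed active.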

Compound	EC50	IC50	outcome
CC(=O)OC12c3ccccc3-c3ccccc3C1C1C(=O)N(C)C(=O)C12Cl (stereo unspecified)	> 67.6 µM	> 67.6 µM	
Nc1ccc(S(=O)(=O)Cc2ccc(C(=O)O)cc2[N+](=O)[O-])cc1	> 107 µM	> 107 µM	
C/C=C1/CN2C3CC1C1(C(=O)OC)C(OC(C)=O)[C@]4(C[C@H]21)c1cc(OC)ccc1N(C)C34 (stereo partly specified)			inactive
COc1ccc(-n2cnc3c(NCC(=O)O)ncnc32)cc1	> 200 µM	> 200 µM	
O=c1[nH]c(=S)[nH]c2c1sc(=S)n2-c1ccccc1	> 89.1 µM	> 89.1 µM	
Cc1ccc(-c2sc(-c3ccc(C)cc3)c3c2C2CCC3C2)cc1	> 200 µM	> 200 µM	
CCC12CCCN(Cc3ccccc3)C1c1c([nH]c3ccccc13)C(CO)C2 (stereo unspecified)	> 26.3 µM	> 26.3 µM	
CCOC(=O)[C@H](C)OC(=O)[C@@](C)(NC(=O)c1ccccc1C(=O)OC)[C@@H]1NC=C(C(=O)OC)CS1	> 200 µM	53.7 µM	
CC(NC(=O)C(N)CC(=O)O)NC(=O)N(C)C(C)(C)C (stereo unspecified)	> 200 µM	> 200 µM	
COC(=O)c1c(C(=O)OC)c(C(c2ccccc2)c2ccccc2)n(-c2ccccc2)c1Cl	> 200 µM	64.6 µM	
CCCCCCCCCCCCCCCCCC(=O)OC[C@H](COP(=O)(O)OCCNC(=O)CCC(=O)O)OC(=O)CCCCCCCCCCCCCCCCC	> 50.1 µM	> 50.1 µM	
CCc1c([N+](=O)[O-])cc2c(c1[N+](=O)[O-])C(C)(C)CCC2C (stereo unspecified)	> 200 µM	14.5 µM	
CSC1(CC(=O)N2CCCCC2)C(=O)Nc2ccccc21 (stereo unspecified)	> 200 µM	> 200 µM	
CN(C)CC1CCC/C(=C\c2ccc(OC(=O)/C=C/c3ccc(Cl)c(Cl)c3)cc2)C1=O (stereo unspecified)	> 100 µM	1.45 µM	
O=C(O)[C@@H]1CSC(c2ccncc2)N1 (stereo partly specified)	> 200 µM	> 200 µM	
COc1ccc(Cl)[c]([Bi]([c]2cc(OC)ccc2Cl)[c]2cc(OC)ccc2Cl)c1	> 39.8 µM	> 39.8 µM	
O=C(/C=C/c1ccc(Cl)c(Cl)c1)c1ccccc1Cl	> 2.4 µM	> 2.4 µM	
C/C1=C\[C@@H](O)C(=O)/C=C/C=C\c2csc(n2)[C@@H](C)NC(=O)C[C@@]2(CC1)S(=O)SC(=O)[C@]2(C)O (stereo partly specified)	> 1.32 µM	0.0055 µM	
O=C(NNC(=O)c1ccccc1Cl)c1ccccc1Cl	> 200 µM	> 200 µM	
CN(C)C(=O)N1CC[N+](C)([O-])CC1	> 200 µM	> 200 µM	
COC(=O)C(=O)C(C(=O)C(=O)Nc1ccccc1[N+](=O)[O-])c1nc2ccc([N+](=O)[O-])cc2[nH]c1=O (stereo unspecified)	> 269 µM	245 µM	
Nc1ncnc2c1ncn2C1OC(CO)CC1O (stereo unspecified)			inactive

Compound	EC50	IC50	outcome
Cc1cnc2sn(-c3ccc([N+](=O)[O-])cc3)c(=O)c2c1	7.59 µM	107 µM	
Cc1nc2c(nc1C)C(=O)C(N)=CC2=O			inactive
NC(c1ccccc1)P(=O)(O)O (stereo unspecified)	> 200 µM	> 200 µM	
CC(=O)N1C(Nc2nccs2)CCN1c1ccccc1 (stereo unspecified)	> 200 µM	26.9 µM	
CCC1CN2CCc3cc(OC)c(OC)cc3C2CC1CC1c2cc(OC)c(OC)cc2CCN1C(=O)C1CCCN1C(=O)OCc1ccccc1 (stereo unspecified)			inactive
O=C1CCC(O)=C1O	> 2190 µM	> 2190 µM	
O/N=C1/CCCC/C1=C/C=C/c1ccccc1	> 16.6 µM	> 16.6 µM	
CC(=O)c1nc2ccccc2n1CC(=O)c1ccc([N+](=O)[O-])cc1	> 200 µM	7.59 µM	
CN(C)c1ccc(C2CC(c3ccc4ccccc4c3O)=NN2)cc1 (stereo unspecified)	> 200 µM	60.3 µM	
COC1C=CC23c4cc5c(cc4COC2(O)CN(C)C3C1)OCO5 (stereo unspecified)	> 550 µM	> 550 µM	
COc1ccc(/C=C/C(=O)Oc2ccccc2OC)cc1	> 200 µM	0.398 µM	
CC(=O)O/C=C1/C[C@H]2[C@@H]3CCC4CC(C(C)=O)CC[C@]4(C)[C@H]3CC[C@]2(C)C1=O (stereo partly specified)	> 200 µM	107 µM	
O=C(c1ccccc1)C1(c2ccccc2)SSC1(C(=O)c1ccccc1)c1ccccc1 (stereo unspecified)	> 100 µM	> 100 µM	
OC1CN=C2c3ccccc3C(O)(c3ccc(Cl)cc3)N2C1 (stereo unspecified)	> 200 µM	44.7 µM	
CNC(=O)N(C)CN(C)C(=O)NC	> 479 µM	229 µM	
CN(C)c1ncnc2c1ncn2C1OC(CO)C(O)C1O (stereo unspecified)			inactive
CC1CC(=O)c2c(ccc3c2C(=O)c2cccc(O)c2C3=O)C1 (stereo unspecified)			inactive
O=c1c2ncn(C3CC(O)C(CO)O3)c2nnn1Cc1ccccc1[N+](=O)[O-] (stereo unspecified)	> 200 µM	> 200 µM	
COC1/C=C/OC2(C)Oc3c(C)c(O)c4c(O)c(cc(OCC(=O)N5CCOCC5C)c4c3C2=O)NC(=O)/C(C)=C/C=C/C(C)C(O)C(C)C(O)C(C)C(OC(C)=O)C1C (stereo unspecified)	> 200 µM	36.3 µM	
COP(=O)(OC)/C(=C/c1cn(C(c2ccccc2)(c2ccccc2)c2ccccc2)cn1)NC=O	> 200 µM	> 200 µM	
CCOc1ccc(/C(C)=N/NC(N)=S)cc1			inactive
CN(C)c1cc[n+](-c2nc(/N=C(\[O-])C(F)(F)F)nc3c2ncn3C2CC(O)C(CO)O2)cc1 (stereo unspecified)	> 200 µM	> 200 µM	

Compound	EC50	IC50	outcome
CC1(C)N/C(=C\C=O)C(C)(C)N1O	> 200 µM	> 200 µM	
CNC(=S)NNC1=NCCCN1	> 200 µM	> 200 µM	
CCc1ccc(Cc2ccc(CC)c(NC(=O)C(=O)C3NC(=S)NC3=O)c2CC)c(CC)c1NC(=O)C(=O)C1NC(=S)NC1=O (stereo unspecified)	> 15.1 µM	> 15.1 µM	
COc1cccc2c(Nc3ccc(S(=O)(=O)Nc4ncccn4)cc3)c3ccc([N+](=O)[O-])cc3nc12	> 100 µM	> 100 µM	
CC1(C)CC(=O)C2=C(C1)NC(SCC(=O)O)=C(C#N)C2c1ccc(Br)cc1 (stereo unspecified)	> 200 µM	178 µM	
O=P(O)(O)CN1CCNCCN(CP(=O)(O)O)CCN(CP(=O)(O)O)CCNCC1	> 100 µM	64.6 µM	
O=C1C=CC(=O)c2c(-c3ccccc3[N+](=O)[O-])cc(Cl)nc21			inactive
O=C(NNC1=NCCN1)c1ccco1	> 200 µM	> 200 µM	
COC(CNC(=O)C(C)NC(=O)C(C)NC(=O)c1ccccc1)OC (stereo unspecified)			inactive
O=C1NC(=O)/C(=C/c2ccc(S(=O)(=O)N/N=C\C(O)C(O)C(O)C(O)CO)cc2)N1 (stereo unspecified)	> 200 µM	126 µM and > 200 µM	
c1cc2cc3c(cc2o1)OC[C@H]1c2cc4c(cc2O[C@@H]31)OCO4	> 43.7 µM	10.5 µM	
CCc1cccc(C)c1NC(=O)CCc1nnc2s/c(=C\c3cccc4ccccc34)c(=O)n12	> 200 µM	191 µM	
C[C@]12CCC(=O)O[C@H]1CCCCO2	> 200 µM	> 200 µM	
Cc1c(C(=O)NCCO)[n+](=O)c2ccccc2n1[O-]	> 135 µM	> 135 µM	
C[C@H]1CC[P+](Cc2ccccc2)(c2ccccc2)C1 (stereo partly specified)	> 708 µM	33.1 µM	
c1ccc2c(c1)SCC1COCOC21 (stereo unspecified)	> 631 µM	617 µM	
N#C/C(N)=C(\C#N)N=CN	> 200 µM	> 200 µM	
CCSC(SCC)=C1C(=O)N(c2ccccc2)N=C1C	> 44.7 µM	> 44.7 µM	
CCCC(=O)Oc1ccc2c(C)cc(=O)oc2c1OC(=O)CCC	> 200 µM	77.6 µM	
CC(=O)OCC(OC(C)=O)C(OC(C)=O)C(Cn1c(=O)cc(C)c2ccc(C)c(C)c21)OC(C)=O (stereo unspecified)	> 200 µM	> 200 µM	
COc1cc([C@@H]2c3cc4c(c(O)c3C[C@H]3COC(=O)[C@@H]32)OCO4)cc(OC)c1OC	> 0.02 µM	0.00309 µM	
COc1ccc(-c2oc(=O)c3ccccc3c2-c2ccccc2)cc1	> 15.8 µM	> 15.8 µM	

Compound	EC50	IC50	outcome
Cc1ccc(C)c(C[P+](c2ccccc2)(c2ccccc2)c2ccccc2)c1	> 200 µM	0.977 µM	
CN(C)CCCNc1cc[n+](C)c2cccc([N+](=O)[O-])c12	> 200 µM	10.5 µM	
CCOP(=O)(Cc1c(Cl)c(Cl)c(CP(=O)(OCC)OCC)c(Cl)c1Cl)OCC	> 200 µM	26.9 µM	
CC[C@@]1(O)C(=O)OCc2c1cc1n(c2=O)Cc2cc3c(CN(C)C)c(O)ccc3nc2-1			inactive
CCOC(=O)c1ccc(CS(=O)c2ccc([N+](=O)[O-])cc2)c([N+](=O)[O-])c1 (stereo unspecified)	> 69.2 µM	21.4 µM	
CCN(CC)c1ccc(N=Nc2ccc(-c3nc4ccc[n+](C)c4s3)cc2)cc1	> 7.08 µM	4.79 µM	
CC12CCCC(O)C1CCC1=CC3(CCC12)SCCS3 (stereo unspecified)	> 12 µM	> 12 µM	
Cc1cccc(NC(=O)O/N=C(\Cl)C(C)C)c1	> 20 µM	2.82 µM	
COC(=O)CCC(NC(=O)C(C)NC(=O)COC1C(O)C(OC(=O)CCNc2c3ccccc3nc3cccc([N+](=O)[O-])c23)OC(OCc2ccccc2)C1NC(C)=O)C(N)=O (stereo unspecified)			inactive
NC(N)=N/N=C(/CCN1CCCC1)CC(c1ccccc1)c1c(O)c2ccccc2oc1=O (stereo unspecified)	> 38.9 µM	> 38.9 µM	
FC(F)(F)c1cccc(C2SCc3nc4ccccc4n32)c1 (stereo unspecified)			inactive
CC(C)N(C(=O)c1ccc([N+](=O)[O-])cc1)C(C)C	> 200 µM	> 200 µM	
CCCCCC(/C=C/C1CCC(=O)C1CC#C[Si](C)(C)C)OCc1ccccc1 (stereo unspecified)	> 200 µM	27.5 µM	
CC[N+](C)(CC)CCCC(C)N1C(=O)C2CCCCC2C1=O (stereo unspecified)	> 200 µM	> 200 µM	
CC(O)CCCOC(c1ccccc1)(c1ccccc1)c1ccccc1 (stereo unspecified)	> 38.9 µM	> 38.9 µM	
CC1(C)OC2OC(C(O)COC(=O)c3ccccc3)C(Cl)C2O1 (stereo unspecified)	> 219 µM	151 µM	
CC(=O)OC[C@@H](OC(C)=O)[C@H](OC(C)=O)[C@@H]1OC(C)(C)O[C@@H]1C1SCCCS1	> 200 µM	> 200 µM	
O=C(CC(=O)c1ccccc1)C(=O)Nc1ccc(Cl)cc1	> 12 µM	> 12 µM	
CCOC(C[Se]CC(OCC)OCC)OCC	37.2 µM	112 µM	
C(=N\Nc1ccccn1)/c1ccccn1.C(=N\Nc1ccccn1)/c1ccccn1.[Cl-].[Fe+3]	> 200 µM	117 µM	
O=C(c1ccccc1)c1c(O)c2ccccc2oc1=O			inactive
